According to ChEMBL document CHEMBL3352151, “In vitro and in vivo antibacterial evaluation and mechanistic study of ornithine based small cationic lipopeptides against antibiotic resistant clinical isolates” (Eur J Med Chem, 2014):
In brackets after ≈: the same amount, converted by molar mass. Activity calls are given as the source filed them. The calls are words filed in the database; no cut-off is given here. Square brackets hold non-standard residues; d marks the D form. Peptide text beside a SMILES is read from it. * marks the point of attachment. Stearoyl = CCCCCCCCCCCCCCCCCC(=O)*; Orn = NCCC[CH](N)C(=O)O

Columns and labels:
[1] = Membrane permeabilization activity assessed as release of calcein from liposomes after 5 mins by fluorescence assay
[2] = Cytotoxicity against human HaCaT cells assessed as cell viability at 100 ug/ml after 18 hrs by MTT assay; format: cell-based; settings: read-out: Activity
Acinetobacter baumannii [3] = assay: Antibacterial activity against clinical isolates of imipenem-resistant Acinetobacter baumannii GMCH/R-Imi003 after overnight incubation by microdilution broth assay; format: functional
Enterococcus faecium [4] = assay: Antibacterial activity against clinical isolates of penicillin-resistant Enterococcus faecium GMCH/R-Pen003 after overnight incubation by microdilution broth assay; format: functional
Acinetobacter baumannii [5] = assay: Antibacterial activity against clinical isolates of Acinetobacter baumannii GMCH/B0083 after overnight incubation by microdilution broth assay; format: functional
Enterococcus faecalis [6] = assay: Antibacterial activity against clinical isolates of Enterococcus faecalis GMCH/B0091 after overnight incubation by microdilution broth assay; format: functional
[7] = Membrane permeabilization activity assessed as release of calcein from liposomes at 1:50 lipopeptide:lipid molar ratio after 5 mins by fluorescence assay
Escherichia coli [8] = assay: Antibacterial activity against clinical isolates of Escherichia coli PGI/DML02250 after overnight incubation by microdilution broth assay; format: functional
Streptococcus pneumoniae [9] = assay: Antibacterial activity against clinical isolates of Streptococcus pneumoniae PGI/DML02468 after overnight incubation by microdilution broth assay; format: functional
[10] = system: Staphylococcus epidermidis; assay: Antibacterial activity against clinical isolates of Staphylococcus epidermidis GMCH/B0057 after overnight incubation by microdilution broth assay; format: functional
[11] = Cytotoxicity against human HaCaT cells assessed as cell viability at 500 ug/ml after 18 hrs by MTT assay; format: cell-based; settings: read-out: Activity
Pseudomonas aeruginosa [12] = assay: Antibacterial activity against clinical isolates of Pseudomonas aeruginosa PGI/DML02084 after overnight incubation by microdilution broth assay; format: functional
Staphylococcus aureus [13] = assay: Antibacterial activity against clinical isolates of Staphylococcus aureus PGI/DML03054 after overnight incubation by microdilution broth assay; format: functional
Klebsiella pneumoniae [14] = assay: Antibacterial activity against clinical isolates of kanamycin-resistant Klebsiella pneumoniae GMCH/R-Kan006 after overnight incubation by microdilution broth assay; format: functional
Escherichia coli [15] = assay: Binding affinity to Escherichia coli PGI/DML02292 DNA at 12 ug/ml after 1 hr by agarose gel electrophoresis
[16] = Membrane permeabilization activity assessed as release of calcein from liposomes at 1:10 lipopeptide:lipid molar ratio after 5 mins by fluorescence assay
Haemophilus influenzae [17] = assay: Antibacterial activity against clinical isolates of ciprofloxacin-resistant Haemophilus influenzae PGI/DML01744 after overnight incubation by microdilution broth assay; format: functional
Staphylococcus aureus [18] = assay: Antibacterial activity against clinical isolates of methicillin-resistant Staphylococcus aureus PGI/DML03149 after overnight incubation by microdilution broth assay; format: functional
Plasma = assay: Drug degradation in human plasma at 1 ug/ml after 24 hrs by RP-HPLC analysis; format: ADME, cell-free
Pseudomonas aeruginosa [19] = assay: Antibacterial activity against clinical isolates of streptomycin-resistant Pseudomonas aeruginosa PGI/DML01991 after overnight incubation by microdilution broth assay; format: functional
Haemophilus influenzae [20] = assay: Antibacterial activity against clinical isolates of Haemophilus influenzae PGI/DML01751 after overnight incubation by microdilution broth assay; format: functional
Streptococcus pneumoniae [21] = assay: Antibacterial activity against clinical isolates of erythromycin-resistant Streptococcus pneumoniae PGI/DML02213 after overnight incubation by microdilution broth assay; format: functional
Enterococcus faecalis [22] = assay: Antibacterial activity against clinical isolates of gentamicin-resistant Enterococcus faecalis GMCH/R-Gen011 after overnight incubation by microdilution broth assay; format: functional
Enterococcus faecium [23] = assay: Antibacterial activity against clinical isolates of Enterococcus faecium GMCH/B0102 after overnight incubation by microdilution broth assay; format: functional
[24] = system: Staphylococcus epidermidis; assay: Antibacterial activity against clinical isolates of ampicillin-resistant Staphylococcus epidermidis GMCH/R-Amp008 after overnight incubation by microdilution broth assay; format: functional
Klebsiella pneumoniae [25] = assay: Antibacterial activity against clinical isolates of Klebsiella pneumoniae GMCH/B0127 after overnight incubation by microdilution broth assay; format: functional
Escherichia coli [26] = assay: Antibacterial activity against clinical isolates of imipenem-resistant Escherichia coli PGI/DML02292 after overnight incubation by microdilution broth assay; format: functional

Compound	viability at 18 h, 100 ug/ml [2] [%]	MIC (Acinetobacter baumannii [3]) [µg/mL]	MIC (Enterococcus faecium [4]) [µg/mL]	MIC (Acinetobacter baumannii [5]) [µg/mL]	MIC (Enterococcus faecalis [6]) [µg/mL]	MIC (Escherichia coli [8]) [µg/mL]	MIC (Streptococcus pneumoniae [9]) [µg/mL]	MIC [10] [µg/mL]	viability at 18 h, 500 ug/ml [11] [%]	MIC (Pseudomonas aeruginosa [12]) [µg/mL]	MIC (Staphylococcus aureus [13]) [µg/mL]	MIC (Klebsiella pneumoniae [14]) [µg/mL]	MIC (Haemophilus influenzae [17]) [µg/mL]	MIC (Staphylococcus aureus [18]) [µg/mL]	MIC (Pseudomonas aeruginosa [19]) [µg/mL]	MIC (Haemophilus influenzae [20]) [µg/mL]	MIC (Streptococcus pneumoniae [21]) [µg/mL]	MIC (Enterococcus faecalis [22]) [µg/mL]	MIC (Enterococcus faecium [23]) [µg/mL]	MIC [24] [µg/mL]	other results
CCCCCCCCCCCCCCCCCC(=O)NC(CCCN)C(=O)NC(CCCN)C(=O)NC(CCCN)C(=O)NC(CCCN)C(N)=O (centres undefined) (Stearoyl-[Orn][Orn][Orn][Orn]-NH2; configuration not given here)	82	12.5 (≈ 16.9 µM)	12.5 (≈ 16.9 µM)	10 (≈ 13.5 µM)	3.1 (≈ 4.19 µM)	7.5 (≈ 10.1 µM)	4 (≈ 5.4 µM)	5.5 (≈ 7.43 µM)	67	4.5 (≈ 6.08 µM)	5 (≈ 6.76 µM)	8 (≈ 10.8 µM)	12.5 (≈ 16.9 µM)	7.5 (≈ 10.1 µM)	2 (≈ 2.7 µM)	8 (≈ 10.8 µM)	12.5 (≈ 16.9 µM)	10 (≈ 13.5 µM)	7.5 (≈ 10.1 µM)	5 (≈ 6.76 µM)	Activity [1]: Dose-dependent effect; Activity [7]: 43%; Activity (Escherichia coli [15]): inactive; Activity [16]: 79%; Stability (Plasma): Stable; MIC (Klebsiella pneumoniae [25]): 3.5 µg/mL (≈ 4.73 µM); MIC (Escherichia coli [26]): 7.5 µg/mL (≈ 10.1 µM)
CCCCCCCCCCCCCCCCCC(=O)NC(CCCN)C(=O)NC(CCCN)C(=O)NC(CCCN)C(N)=O (centres undefined)	> 80	4.5 (≈ 7.19 µM)	7.5 (≈ 12 µM)	6.5 (≈ 10.4 µM)	2.5 (≈ 3.99 µM)	10 (≈ 16 µM)	2.5 (≈ 3.99 µM)	7.5 (≈ 12 µM)	> 80	1.5 (≈ 2.4 µM)	6.2 (≈ 9.91 µM)	7.5 (≈ 12 µM)	7.5 (≈ 12 µM)	5.5 (≈ 8.79 µM)	4.5 (≈ 7.19 µM)	10 (≈ 16 µM)	5 (≈ 7.99 µM)	6.25 (≈ 9.98 µM)	4.5 (≈ 7.19 µM)	5 (≈ 7.99 µM)	MIC (Klebsiella pneumoniae [25]): 3.5 µg/mL (≈ 5.59 µM); MIC (Escherichia coli [26]): 7.5 µg/mL (≈ 12 µM)
